As a reminder, the IC50 is the concentration that gives 50% inhibition. As a reminder, the Ki is a measure of affinity in units of concentration, obtained from inhibition or displacement. The AUC(0-t) is the area under the concentration-time curve up to a stated or last time point. Read a low AUC(0-t) as less exposure. Usually Cmax stands for the highest concentration seen after dosing. One may read the Tmax as the time from dosing to the highest level. A word on the half-life: it is how long it takes for the measured level to halve. A higher half-life goes with slow loss. A word on the clearance: it is the rate of elimination divided by the concentration.

Molecules are shown by their SMILES.

This note sets out measurements from patent US12643889B2, “Synthesis of novel EP4 antagonist and use in cancer and inflammation” (Wuhan Humanwell Innovative Drug Research And Development …, priority 2020, dated 2026).

In series [1] the target is T1, recombinant human EP4 receptor membrane protein (Homo sapiens, UniProt P35408).
T1 construct: expressed in transfected cells; host or cells: membranes of 293 cells overexpressing human EP4 receptor
Briefly: Radioligand binding assay for EP4 receptor ([3H]-PGE2). To be noted: [3H]-PGE2 1.5 nM; membrane protein 20 μg/well. The procedure: The compounds to be tested and PGE2 were formulated as 10 mM stocks in a DMSO solvent, and then 8 concentration points of 4× working solution were serially diluted using a buffer (50 mM HBSS, 0.1% BSA, 500 mM NaCl). […] Unifilter-96 GF/C filter plate (Perkin Elmer) was soaked with 0.5% BSA, 50 μL per well, for at least 30 min at room temperature. After binding was complete, the reaction mixture was harvested through a GF/C plate using a Perkin Elmer Filtermate Harvester, followed by washing the filter plate and drying the filter plate for 1 hour at 50° C. After drying, the bottom of the filter plate wells was sealed using a Perkin Elmer Unifilter-96 sealing tape, and 50 μL of MicroScint™-20 cocktail (Perkin Elmer) was added to seal the top of the filter plate. The ^3H counts captured on the filter were read using a Perkin Elmer MicroBeta2 Reader.
The IC50 and Ki values of the compounds determined by the radioligand binding assay for EP4 receptor were calculated based on the inhibition rate of the different concentrations of the compounds.

In series [2] the target is T2, human EP4 receptor (Homo sapiens, UniProt P35408). Briefly: Assay of calcium current inhibition on EP4 receptor (FLIPR, 293 cells). On the set-up: expressed in transfected cells; host or cells: 293 cells. To be noted: for IC50: 293 cells overexpressing human EP4, PGE2 at EC80, FLIPR. It counts as cell-based. The procedure: The cells were rapidly thawed in a 37° C. water bath, centrifuged, resuspended, and counted. The cell suspensions were seeded at 20 μL/well in two 384-well plates (20,000 cells/well) and placed in an incubator (a 37° C., 5% CO2) overnight. Preparation of a 2× Fluo-4 Direct™ (Invitrogen, Cat #F10471) loading buffer: 77 mg of probenecid was added to 1 mL of a FLIPR buffer, with a concentration of 250 mM. 10 mL of FLIPR buffer and 0.2 mL of probenecid (250 mM) were added to each tube of Fluo-4 Direct™ crystals (F10471).
One of the cell plates was taken out of the incubator and the medium was removed. 20 μL of an assay buffer and 2× Fluo-4 Direct™ non-wash loading buffer were added to the 384-well cell culture plate to a final volume of 40 μL, and then the culture plate was incubated in an incubator (a 37° C., 5% CO2) for 50 minutes, and then at room temperature for 10 minutes, and then the plate was placed in the FLIPR. 10 μL of the buffer was transferred to the cell plate and the fluorescence signal was read. The agonist PGE2 was formulated as a 10 mM stock in a DMSO solvent and 10 concentration points of the 6× working solution were serially diluted using the buffer. 10 μL of the agonist PGE2 was transferred to the cell plate, the fluorescence signal was read to calculate EC80 value.
The agonist PGE2 was prepared at 6× EC80 concentration and the compound to be tested was formulated as a 10 mM stock solution in the DMSO solvent and 10 concentration points of the 6× compound working solution was serially diluted using the buffer.
Another cell plate was taken to remove media and 20 μL of the assay buffer and 2× Fluo-4 Direct™ non-wash loading buffer were added; the cell plate was incubated in a 37° C., 5% CO2 incubator for 50 minutes and room temperature for 10 minutes and then placed in the FLIPR. 10 μL of the compound working solution, DMSO, and the EP4 full antagonist were transferred to the cell plate and the fluorescence signal was read. […] Inhibition (%)=100−(test group−EP4 full antagonist group)/(DMSO group−EP4 full antagonist group)*100
Compound's IC50 value of EP4 calcium current inhibition was calculated based on the inhibition rate at different concentrations of the compound.

The target in series [3] is T2, human EP4 receptor. As to the kind of experiment: Assay for EP4 antagonistic effect (cAMP, PGE2-stimulated CHO stable cell line).
Protocol: After trypsinization, cells were resuspended in a buffer (1×HBSS, 0.1% BSA, 20 mM HEPES, and 500 μM IBMX) and 8000 cells were seeded per well in 384-well plates in a seeding volume of 15 μL. A working solution the compound with a 8× concentration was prepared with an experimental buffer, and then 2.5 μL of the working solution of the compound with 8× concentration was added to the 384-well plate, respectively, and incubated at 37° C. for 30 min. An agonist PGE2 working solution with 8× concentration of (4 nM) was prepared with the experimental buffer and 2.5 μL per well was added to the 384-well plate (the final PGE2 concentration was 0.5 nM) and incubated at 37° C. for 30 min. After the reaction was completed, the amount of cAMP in the cells was quantified according to the method in the instructions of the cAMP test kit (Perkin Elmer, Cat #TRF0263). The antagonistic effects (IC50 value) were calculated for the test compounds.
Series [4] is described as follows: Mouse pharmacokinetic assay. To be noted: male, ICR, plasma, oral gavage administration 5 mg/kg. The class given is in vivo, male ICR mice. The procedure: (§1) In a mouse pharmacokinetic assay, male ICR mice (20 g to 25 g) were selected and fasted overnight. Three mice were selected and intragastrically administered with 5 mg/kg of the corresponding compound. The blood of the mice was collected before the administration and at 15 min, 30 min, 1 h, 2 h, 4 h, 8 h, 24 h after the administration. Another 3 mice were intravenously administered with 1 mg/kg of the corresponding compound, and the blood thereof was collected before the administration and at 15 min, 30 min, 1 h, 2 h, 4 h, 8 h, 24 h after the administration. The blood samples were centrifuged at 6800 g at 2° C. to 8° C. for 6 minutes, and plasma was collected and stored at −80° C. The plasma was taken at respective time point, mixed with 3-5 times the amount of acetonitrile containing internal standard, vortexed for 1 minute, centrifuged at 4° C. for 10 minutes at 13000 rpm, supernatant was added 3 times the amount of water, and the appropriate mixture was taken for LC-MS/MS analysis. The primary pharmacokinetic parameters were analyzed with a WinNonlin 7.0 software, with non-compartmental model.

Series [5] can be described thus: Rat pharmacokinetic assay. The class given is in vivo, male SD rats. To be noted: male, SD, plasma, rat, intravenous administration 1 mg/kg. How it is done:
as §1
In a rat pharmacokinetic assay, male SD rats (180 g to 240 g) were selected and fasted overnight. Three rats were intragastrically administered with 5 mg/kg of the corresponding compound. Another 3 rats were intravenously administered with 1 mg/kg of the corresponding compound. The following operations were the same as the mouse pharmacokinetic assay.

T1 sequence (P35408 whole entry): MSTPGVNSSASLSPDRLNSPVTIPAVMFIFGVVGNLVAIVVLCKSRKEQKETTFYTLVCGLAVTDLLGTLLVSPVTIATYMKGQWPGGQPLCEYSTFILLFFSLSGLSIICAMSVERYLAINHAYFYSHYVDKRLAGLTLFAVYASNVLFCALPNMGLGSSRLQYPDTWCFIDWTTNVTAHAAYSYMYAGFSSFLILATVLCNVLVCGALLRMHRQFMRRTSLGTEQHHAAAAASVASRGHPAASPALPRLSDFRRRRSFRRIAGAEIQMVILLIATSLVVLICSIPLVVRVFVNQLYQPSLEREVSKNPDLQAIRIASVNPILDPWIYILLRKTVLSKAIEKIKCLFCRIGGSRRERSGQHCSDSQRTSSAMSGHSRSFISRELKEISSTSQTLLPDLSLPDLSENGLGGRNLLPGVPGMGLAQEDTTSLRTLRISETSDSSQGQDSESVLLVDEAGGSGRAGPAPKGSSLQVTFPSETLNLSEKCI
T2 sequence (P35408 whole entry): as above

With `CC(C)c1cccc(Oc2c(C(=O)N[C@@H](C)c3ccc(C(=O)O)cc3)c(C(F)F)nn2C)c1` [Compound I-4, (S)-4-(1-(3-(difluoromethyl)-5-(3-isopropylphenoxy)-1-methyl-1H-pyrazole-4-carboxamido)ethyl)benzoic Acid], in series [1], the IC50 is 7.4 nM and the Ki was determined as 4 nM. The IC50 in series [2] is 4 nM. Further, the “increase of inhibition effect on the calcium current of EP4 compared with the control compound” value in series [2] (compared with the control compound) was “more than 5 time”.
Take `C[C@H](NC(=O)c1c(C(F)F)nn(C)c1Oc1ccc(-c2ccccc2)cc1)c1ccc(C(=O)O)cc1` [Compound I-26, (S)-4-(1-(5-([1,1′-biphenyl]-4-yloxy)-3-(difluoromethyl)-1-methyl-1H-pyrazole-4-carboxamido)ethyl)benzoic Acid]: the half-inhibitory concentration (IC50) in series [2] worked out at 8.5 nM.
Take `C[C@H](NC(=O)c1c(C(F)F)nn(C)c1Oc1ccc(F)c(C(C)(F)F)c1)c1ccc(C(=O)O)cc1` [Compound I-10, (S)-4-(1-(5-(3-(1,1-difluoroethyl)-4-fluorophenoxy)-3-(difluoromethyl)-1-methyl-1H-pyrazole-4-carboxamido)ethyl)benzoic Acid]: the results for the IC50 in series [1] and in series [2] were 4 nM and 14 nM, respectively. In addition, the Ki in series [1] was determined as 2.2 nM.
For `CSc1cccc(Oc2c(C(=O)N[C@@H](C)c3ccc(C(=O)O)cc3)c(C(F)F)nn2C)c1` [Compound I-30, (S)-4-(1-(3-(difluoromethyl)-1-methyl-5-(3-(methylthio)phenoxy)-1H-pyrazole-4-carboxamido)ethyl)benzoic Acid], the concentration for half-maximal inhibition (IC50) in series [1] was 12 nM; in series [2] it was 15 nM; in series [3], 12 nM. Also, the Ki in series [1] is 6.6 nM.
For `CCc1cc(Oc2c(C(=O)N[C@@H](C)c3ccc(C(=O)O)cc3)c(C(F)F)nn2C)ccc1C` [Compound I-17, (S)-4-(1-(3-(difluoromethyl)-5-(3-ethyl-4-methylphenoxy)-1-methyl-1H-pyrazole-4-carboxamido)ethyl)benzoic Acid], the IC50 in series [2] was 18 nM.
As for `Cc1cc(Oc2c(C(=O)N[C@@H](C)c3ccc(C(=O)O)cc3)c(C(F)F)nn2C)cs1` [Compound I-41, (S)-4-(1-(3-(difluoromethyl)-1-methyl-5-((5-methylthiophen-3-yl)oxy)-1H-pyrazole-4-carboxamido)ethyl)benzoic Acid], in series [2], the IC50 was 16 nM.
For the compound `CC(F)c1cccc(Oc2c(C(=O)N[C@@H](C)c3ccc(C(=O)O)cc3)c(C(F)F)nn2C)c1` (stereo partly drawn) [Compound I-13, 4-((1S)-1-(3-(difluoromethyl)-5-(3-(1-fluoroethyl)phenoxy)-1-methyl-1H-pyrazole-4-carboxamido)ethyl)benzoic Acid], in series [2], the IC50 was found to be 10 nM.
As to `C[C@H](NC(=O)c1c(C(F)F)nn(C)c1Oc1cccc(S(F)(F)(F)(F)F)c1)c1ccc(C(=O)O)cc1` [Compound I-28, (S)-4-(1-(3-(difluoromethyl)-1-methyl-5-(3-(pentafluoro-λ^6-sulfanyl)phenoxy)-1H-pyrazole-4-carboxamido)ethyl)benzoic Acid], the IC50 amounted to 8 nM in series [2] and 5.7 nM in series [3].
With `CCc1cc(F)cc(Oc2c(C(=O)N[C@@H](C)c3ccc(C(=O)O)cc3)c(C(F)F)nn2C)c1` [Compound I-12, (S)-4-(1-(3-(difluoromethyl)-5-(3-ethyl-5-fluorophenoxy)-1-methyl-1H-pyrazole-4-carboxamido)ethyl)benzoic Acid], the concentration for half-maximal inhibition (IC50) in series [2] amounted to 19 nM.
Consider `C[C@H](NC(=O)c1c(C(F)F)nn(C)c1Oc1cccc(OCC(F)(F)F)c1)c1ccc(C(=O)O)cc1` [Compound I-33, (S)-4-(1-(3-(difluoromethyl)-1-methyl-5-(3-(2,2,2-trifluoroethoxy)phenoxy)-1H-pyrazole-4-carboxamido)ethyl)benzoic Acid], for which, in series [1], the IC50 was 31 nM and the Ki is 17 nM. Moreover, in series [4], the AUC(0-t) is 8290 ng·h/mL, the Cmax came out at 2530 ng/mL, the Tmax came to 0.33 h and the half-life was 8.22 h. Further, in series [5], the AUC(0-t) worked out at 4670 ng·h/mL, the clearance was 3.67 mL/min/kg and the half-life is 9.02 h. The Vd in series [5] (read-out: Vz) stood at 2.72 L/kg. For the same compound, the concentration for half-maximal inhibition (IC50) in series [2] amounted to 12 nM.
Turning to `CC(c1cccc(Oc2c(C(=O)N[C@@H](C)c3ccc(C(=O)O)cc3)c(C(F)F)nn2C)c1)C(F)(F)F` (stereo partly drawn) [Compound I-15, 4-((1S)-1-(3-(difluoromethyl)-1-methyl-5-(3-(1,1,1-trifluoropropan-2-yl)phenoxy)-1H-pyrazole-4-carboxamido)ethyl)benzoic Acid], in series [1], the half-maximal inhibitory concentration (IC50) worked out at 12 nM and the inhibition constant (Ki) is 6.6 nM. The 50% inhibitory concentration (IC50) in series [2] is 18 nM.
In the case of `CC(O)c1cc(Oc2c(C(=O)N[C@@H](C)c3ccc(C(=O)O)cc3)c(C(F)F)nn2C)ccc1F` (stereo partly drawn) [Compound I-23, 4-((1S)-1-(3-(difluoromethyl)-5-(4-fluoro-3-(1-hydroxyethyl)phenoxy)-1-methyl-1H-pyrazole-4-carboxamido)ethyl)benzoic Acid], in series [1], the concentration for half-maximal inhibition (IC50) worked out at 13 nM and the inhibitory constant (Ki) came to 7 nM.
Regarding `Cc1nn(C)c(Oc2cccc(C(C)(F)F)c2)c1C(=O)N[C@@H](C)c1ccc(C(=O)O)cc1` [Compound I-8, (S)-4-(1-(5-(3-(1,1-difluoroethyl)phenoxy)-1,3-dimethyl-1H-pyrazole-4-carboxamido)ethyl)benzoic Acid], the half-maximal inhibitory concentration (IC50) in series [2] was determined as 16.5 nM.
In series [3], `CCc1cccc(Oc2c(C(=O)N[C@@H](C)c3ccc(C(=O)O)cc3)c(C)nn2C)c1` [Compound I-9, (S)-4-(1-(5-(3-ethylphenoxy)-1,3-dimethyl-1H-pyrazole-4-carboxamido)ethyl) benzoic Acid] had an IC50 of 29 nM.
Consider `C[C@H](NC(=O)c1c(C(F)F)nn(C)c1Oc1cccc(SC(F)(F)F)c1)c1ccc(C(=O)O)cc1` [Compound I-29, (S)-4-(1-(3-(difluoromethyl)-1-methyl-5-(3-((trifluoromethyl)thio)phenoxy)-1H-pyrazole-4-carboxamido)ethyl)benzoic Acid], for which, in series [3], the concentration for half-maximal inhibition (IC50) was 14 nM.
With `CCc1cc(Oc2c(C(=O)N[C@@H](C)c3ccc(C(=O)O)cc3)c(C(F)F)nn2C)ccc1Cl` [Compound I-11, (S)-4-(1-(5-(4-chloro-3-ethylphenoxy)-3-(difluoromethyl)-1-methyl-1H-pyrazole-4-carboxamido)ethyl)benzoic Acid], the IC50 was found to be 6.8 nM in series [1] and 8 nM in series [2]. For the same compound, the inhibitory constant (Ki) in series [1] was determined as 3.7 nM.
